Patent publication US20210338782A1, “STORAGE STABLE SOMATOSTATIN-DOPAMINE CHIMERIC COMPOUNDS AND SALT FORMS THEREOF” (Cydan II, Inc., priority 2019, published 2021)
Structures can show the parent of a compound that is named as a salt.

How the values were obtained:
Type in all cases: physicochemical
[1] = Solid state (thermolytic) stability of TBR-760 salt forms, open container, UPLC peak purity and appearance; conditions: for Purity, T = 2 wk / Purity, T = 4 wk / Purity, Control: UPLC peak purity; for Purity, Control / Appearance, Control: stored at -20° C.
Protocol: Each TBR-760 salt was further evaluated for thermolytic stability over time by setting up three different exposure conditions (25° C. at 60% relative humidity (RH); 40° C. at 75% RH; or 60° C. with open and closed container systems (open dish/closed dish). Approximately 50 mg of each salt form was weighed in a nitrogen-flushed glove box for use in the studies. All samples were stored at −20° C. in a good laboratory practice (GLP) freezer both before and after exposure to the indicated conditions.
The stability of each salt form was assessed by monitoring the post-exposure drug peak purity and by evaluating the post-exposure visual appearance of the salt. The samples were removed from the exposure conditions and allowed to equilibrate to ambient conditions for 15-20 mins. An appropriate amount of each sample was weighed for analysis and dissolved in diluent (deionized water containing 0.1% TFA) to obtain a stock concentration of 1 mg/mL. The stock solution was then diluted to 0.125 mg/mL in an HPLC vial using diluent and the samples were run on a Waters Acquity UPLC system using the parameters shown in Table 4.

[2] = Photostability of TBR-760 salt forms (ICH Q1B, visible and UV light), appearance and UPLC purity; conditions: for Purity, UV-exposed / Purity, Control / Purity, Dark Ctrl-UV / Purity, Dark Crtl-Light / Purity, Light-exposed / degradation upon exposure to visible or UV light, in words: UPLC; for Purity, UV-exposed / Appearance, UV-exposed: UV 200 watt hours/square meter; for Purity, UV-exposed / Purity, Light-exposed / Appearance, UV-exposed / Appearance, Light-exposed: clear sealed vial; for Purity, Control / Appearance, Control: control in sealed amber vial at -20° C.; for Purity, Dark Ctrl-UV / Appearance, Dark Ctrl-UV: dark control in UV chamber; for Purity, Dark Crtl-Light / Appearance, Dark Crtl-Light: dark control in visible light chamber; for Appearance, Dark Ctrl-UV / Appearance, Dark Crtl-Light: amber vial wrapped in aluminum foil; for degradation upon exposure to visible or UV light, in words: visible and UV light
Source text: In order to evaluate the light sensitivity and stability of TBR-760 chimeric peptide salts, all five salt forms were exposed to ultraviolet (UV) and visible light according to International Council for Harmonisation of Technical Requirements for Pharmaceuticals for Human Use (ICH) guideline Q1B for photostability testing. In brief, a Caron 6540-1 photostability chamber unit with separate UV and light chambers was used for the studies. Visible light exposure was 1.2 million lux hours and UV exposure was 200 watt hours/square meter.
Samples were placed in clear, sealed vials and stored in the appropriate chamber alongside dark controls in amber colored vials wrapped in aluminum foil. Control samples were stored in sealed amber vials at −20° C. The appearance of exposed samples was examined visually before being analyzed via UPLC.

[3] = Thermogravimetric analysis (TGA) of TBR-760 salt forms; conditions: ramp 5.0° C. per minute from 25 to 400° C.
Protocol: Thermogravimetric analyses (TGA) were performed on all TBR-760 salt forms to evaluate thermal stability of each salt form. Studies were performed using a TGA-Q500 thermogravimetric analyzer (TA Instruments). The weight of each compound was measured while the temperature was increased at a ramp rate of 5.0° C. per minute from 25 to 400° C. […] The weight loss may be indicative of loss of adsorbed moisture, entrained solvent or volatile impurities. Decomposition of the compound appears to start at about 234° C. (sulfate salt), 245° C. (chloride salt), 252° C. (tosylate salt), and 255° C. (mesylate salt). For the acetate salt, a further ˜5% loss of weight between 110° C. and 200° C. was observed, indicating loss of volatile acetate ions over that temperature range (FIG. 8).

[4] = 25° C. at 60% RH, open container
[5] = 40° C. at 75% RH, open container
[6] = visible light 1.2 million lux hours, listed as Sulphate
[7] = visible light 1.2 million lux hours

CCCN1C[C@H](CSCC(=O)NCCCC[C@@H](NC(=O)CSC[C@@H]2C[C@@H]3c4cccc5[nH]cc(c45)C[C@H]3N(CCC)C2)C(=O)N[C@H]2CSSC[C@@H](C(=O)N[C@H](C(N)=O)[C@@H](C)O)NC(=O)[C@H](CC)NC(=O)[C@H](CCCCN)NC(=O)[C@@H](Cc3c[nH]c4ccccc34)NC(=O)[C@H](Cc3ccc(O)cc3)NC2=O)C[C@@H]2c3cccc4[nH]cc(c34)C[C@H]21 [TBR-760 sulfate, Dop2-D-Lys(Dop2)-cyclo[Cys-Tyr-D-Trp-Lys-Abu-Cys]-Thr-NH2]
Appearance, T = 2 wk [1, 4]: White
Appearance, T = 4 wk [1, 4]: White
Appearance, T = 3 d [1, 4]: White
Appearance, T = 2 wk [1, 5]: White
Appearance, T = 4 wk [1, 5]: White
Appearance, T = 3 d [1, 5]: White
Appearance, T = 2 wk ([1]; 60° C., open dish): White
Appearance, T = 4 wk ([1]; 60° C., open dish): White
Appearance, T = 3 d ([1]; 60° C., open dish): White
Purity, T = 2 wk [1, 4]: 97.34
Purity, T = 4 wk [1, 4]: 97.75
Purity, T = 2 wk [1, 5]: 97.08
Purity, T = 4 wk [1, 5]: 97.3
Purity, T = 2 wk ([1]; 60° C., open dish): 93.7
Purity, T = 4 wk ([1]; 60° C., open dish): 92.01
Purity, Control [1]: 98.04
Appearance, Control [1]: White
additional degradants in chromatogram versus control ([1]; two weeks at 60° C., open dish, UPLC, listed as sulfate salt): more than 10
Purity, UV-exposed ([2]; listed as Sulphate): 96.24
Purity, Control ([2]; listed as Sulphate): 98.04
Purity, Dark Ctrl-UV ([2]; listed as Sulphate): 98.17
Purity, Dark Crtl-Light ([2]; listed as Sulphate): 98.19
Purity, Light-exposed [2, 6]: 94.82
Appearance, UV-exposed [2]: white to off-white
Appearance, UV-exposed ([2]; listed as Sulphate): off-white
Appearance, Control [2]: white
Appearance, Dark Ctrl-UV [2]: white
Appearance, Dark Crtl-Light [2]: white
degradation upon exposure to visible or UV light, in words [2]: more resistant to degradation than TBR-760 acetate
Appearance, Light-exposed [2, 7]: no visible discoloration
Appearance, Light-exposed [2, 6]: white
TGA start of decomposition ([3]; listed as sulfate salt): about 234 °C

CCCN1C[C@H](CSCC(=O)NCCCC[C@@H](NC(=O)CSC[C@@H]2C[C@@H]3c4cccc5[nH]cc(c45)C[C@H]3N(CCC)C2)C(=O)N[C@H]2CSSC[C@@H](C(=O)N[C@H](C(N)=O)[C@@H](C)O)NC(=O)[C@H](CC)NC(=O)[C@H](CCCCN)NC(=O)[C@@H](Cc3c[nH]c4ccccc34)NC(=O)[C@H](Cc3ccc(O)cc3)NC2=O)C[C@@H]2c3cccc4[nH]cc(c34)C[C@H]21 [TBR-760 tosylate, Dop2-D-Lys(Dop2)-cyclo[Cys-Tyr-D-Trp-Lys-Abu-Cys]-Thr-NH2]
Appearance, T = 2 wk [1, 4]: White
Appearance, T = 4 wk [1, 4]: White
Appearance, T = 3 d [1, 4]: White
Appearance, T = 2 wk [1, 5]: White
Appearance, T = 4 wk [1, 5]: White
Appearance, T = 3 d [1, 5]: White
Appearance, T = 2 wk ([1]; 60° C., open dish): White
Appearance, T = 4 wk ([1]; 60° C., open dish): White
Appearance, T = 3 d ([1]; 60° C., open dish): White
Purity, T = 2 wk [1, 4]: 98.01
Purity, T = 4 wk [1, 4]: 97.39
Purity, T = 2 wk [1, 5]: 97.57
Purity, T = 4 wk [1, 5]: 96.93
Purity, T = 2 wk ([1]; 60° C., open dish): 96.86
Purity, T = 4 wk ([1]; 60° C., open dish): 96.52
Purity, Control [1]: 98.39
Appearance, Control [1]: White
Purity, UV-exposed [2]: 95.67
Purity, Control [2]: 98.39
Purity, Dark Ctrl-UV [2]: 98.27
Purity, Dark Crtl-Light [2]: 98.27
Purity, Light-exposed [2, 7]: 96.3
Appearance, UV-exposed ([2]; listed as Tosylate): off-white
Appearance, UV-exposed ([2]; listed as tosylate): white to off-white
Appearance, Control [2]: white
Appearance, Dark Ctrl-UV [2]: white
Appearance, Dark Crtl-Light [2]: white
degradation upon exposure to visible or UV light, in words [2]: more resistant to degradation than TBR-760 acetate
stability following light exposure, in words [2, 7]: significantly more stable than the TBR-760 acetate salt
Appearance, Light-exposed ([2]; visible light 1.2 million lux hours, listed as Tosylate): off-white
Appearance, Light-exposed ([2]; visible light 1.2 million lux hours, listed as tosylate): white to off-white
TGA start of decomposition ([3]; listed as tosylate salt): ~252 °C

CCCN1C[C@H](CSCC(=O)NCCCC[C@@H](NC(=O)CSC[C@@H]2C[C@@H]3c4cccc5[nH]cc(c45)C[C@H]3N(CCC)C2)C(=O)N[C@H]2CSSC[C@@H](C(=O)N[C@H](C(N)=O)[C@@H](C)O)NC(=O)[C@H](CC)NC(=O)[C@H](CCCCN)NC(=O)[C@@H](Cc3c[nH]c4ccccc34)NC(=O)[C@H](Cc3ccc(O)cc3)NC2=O)C[C@@H]2c3cccc4[nH]cc(c34)C[C@H]21 [TBR-760 mesylate, Dop2-D-Lys(Dop2)-cyclo[Cys-Tyr-D-Trp-Lys-Abu-Cys]-Thr-NH2]
Appearance, T = 2 wk [1, 4]: White
Appearance, T = 4 wk [1, 4]: White
Appearance, T = 3 d [1, 4]: White
stability compared with the other salt forms ([1]; 40° C. at 75% RH and 60° C., 2 and 4 weeks): significantly more stable
Appearance, T = 2 wk [1, 5]: White
Appearance, T = 4 wk [1, 5]: White
Appearance, T = 3 d [1, 5]: White
Appearance, T = 2 wk ([1]; 60° C., open dish): White
Appearance, T = 4 wk ([1]; 60° C., open dish): White
Appearance, T = 3 d ([1]; 60° C., open dish): White
Purity, T = 2 wk [1, 4]: 98.14
Purity, T = 4 wk [1, 4]: 97.77
Purity, T = 2 wk [1, 5]: 97.49
Purity, T = 4 wk [1, 5]: 97.35
Purity, T = 2 wk ([1]; 60° C., open dish): 97.56
Purity, T = 4 wk ([1]; 60° C., open dish): 97.17
Purity, Control [1]: 98.39
Appearance, Control [1]: White
Purity, UV-exposed [2]: 96.67
Purity, Control [2]: 98.39
Purity, Dark Ctrl-UV [2]: 98.35
Purity, Dark Crtl-Light [2]: 98.46
Purity, Light-exposed [2, 7]: 95.3
Appearance, UV-exposed ([2]; listed as Mesylate): off-white
Appearance, UV-exposed ([2]; listed as mesylate): white to off-white
Appearance, Control [2]: white
Appearance, Dark Ctrl-UV [2]: white
Appearance, Dark Crtl-Light [2]: white
degradation upon exposure to visible or UV light, in words [2]: more resistant to degradation than TBR-760 acetate
Appearance, Light-exposed ([2]; visible light 1.2 million lux hours, listed as Mesylate): off-white
Appearance, Light-exposed ([2]; visible light 1.2 million lux hours, listed as mesylate): white to off-white
TGA start of decomposition ([3]; listed as mesylate salt): ~255 °C
